Where two headings read alike, the source gives them in different places. Starred links: 1 amine or outer side, 2 acyl side, 3 side chain; linkers in the order of their positions; H or OH if unused. Positions of bridges follow the written chain, without caps; N, C: chain ends. Non-standard residues stand in square brackets, D forms with d. Residues, ends and D or L forms follow the SMILES beside them. *: point of attachment. Orn(4R-OH,5R-OCH2CH2NMe3+) = C[N+](C)(C)CCO[C@@H](N[*:3])[C@H](O)C[C@H](N[*:1])C(=O)[*:2]; pTerphenylCO(4''-OnC5H11) = CCCCCOc1ccc(-c2ccc(-c3ccc(C(=O)*)cc3)cc2)cc1; hTyr(3S-OH,4S-OH) = N[C@H](C(=O)O)[C@H](O)[C@@H](O)c1ccc(O)cc1; Pro(3S-OH,4S-Me) = C[C@H]1CN[C@H](C(=O)O)[C@H]1O; Hyp = O=C(O)[C@@H]1C[C@@H](O)CN1
Legend:
[1] = Pharmacokinetics of CD101 after single 30 mg/kg SC (vs IV) dose in monkeys; assay type: in vivo; details: cynomolgus monkey, plasma; for half-life: 30 mg/kg
Description: Previous toxicology studies by the IV route of administration conducted in cynomolgus monkeys have shown CD101 to be safe and well tolerated at up to at least 30 mg/kg, which generates very high systemic exposures upon initial infusion of CD101 into the bloodstream. Therefore, only local tolerability (and PK) of CD101 by SC administration required evaluation. […] Plasma concentrations were then quantified by liquid chromatography with tandem mass spectrometric detection (LC-MS/MS). Bioavailability from SC dosing was calculated by comparing the calculated area under the concentration-time profile (AUC) from SC against the AUC from IV administration of the same dose.

C. parapsilosis = assay: In vitro susceptibility testing (CLSI M27-A3), C. parapsilosis; assay type: cell-based, Candida parapsilosis; details: Lodderomyces parapsilosis, 24 h
Description: Ten clinical Candida strains were used for the in vivo treatment studies, including four C. albicans, three C. glabrata, and three C. parapsilosis strains (Table 15). This group was selected to encompass phenotypic variability in susceptibility to triazoles and echinocandins and based on similar fitness in the animal model as defined by the amount of growth in control animals over 24 h. The organisms were maintained, grown, and quantified on Sabouraud's dextrose agar (SDA) plates.
In vitro susceptibility testing. All isolates were tested in accordance with the standards in CLSI document M27-A3. The MICs were determined visually after 24 h of incubation as the lowest concentration of drug that causes a significant diminution (50%) of growth compared to controls. MICs were determined on three separate occasions in duplicate.

[2] = test system: A. fumigatus clinical isolates; details: Aspergillus fumigatus clinical isolates; SENTRY, Pfaller, et al 2017; cited from earlier work
C. glabrata = assay: Neutropenic murine disseminated candidiasis model, PK/PD targets, C. glabrata
[3] = both sexes, sc, Subcutaneous 30 mg/kg
[4] = female, animal 9707, F, 30 mg/kg SC
[5] = male, animal 9697, M, 30 mg/kg SC
[6] = C. glabrata, Median of 3 strains

CCCCCOc1ccc(-c2ccc(-c3ccc(C(=O)N[C@H]4C[C@@H](O)[C@@H](OCC[N+](C)(C)C)NC(=O)[C@@H]5[C@@H](O)[C@@H](C)CN5C(=O)[C@H]([C@@H](C)O)NC(=O)[C@H]([C@H](O)[C@@H](O)c5ccc(O)cc5)NC(=O)[C@@H]5C[C@@H](O)CN5C(=O)[C@H]([C@@H](C)O)NC4=O)cc3)cc2)cc1 [CD101] ({pTerphenylCO(4''-OnC5H11)}-[Orn(4R-OH,5R-OCH2CH2NMe3+)]T[Hyp][hTyr(3S-OH,4S-OH)]T[Pro(3S-OH,4S-Me)]; lactam 1-C)
half-life [1, 3]: ~124 h
AUC(0-t) [1, 3]: 2460 µg·h/mL
Cmax [1, 3]: 13.4 µg/mL
Tmax [1, 3]: 72 h
AUC(0-inf) ([1]; both sexes, sc, Subcutaneous 30 mg/kg, read-out: AUCinf): 3520 µg·h/mL
bioavailability ([1]; both sexes, subcutaneous, SC 30 mg/kg vs IV at the same dose, 10-day period): 80%
half-life ([1]; iv, IV 30 mg/kg): 49.7 h
AUC(0-t) ([1]; IV 30 mg/kg): 3140 µg·h/mL
Cmax ([1]; IV 30 mg/kg): 112 µg/mL
Tmax ([1]; IV 30 mg/kg): 1 h
AUC(0-inf) ([1]; IV 30 mg/kg, read-out: AUCinf): 3340 µg·h/mL
half-life ([1]; female, sc, animal 9707, F, 30 mg/kg SC): 171 h
AUC(0-t) [1, 4]: 2180 µg·h/mL
Cmax [1, 4]: 10.9 µg/mL
Tmax [1, 4]: 48 h
AUC(0-inf) ([1]; female, animal 9707, F, 30 mg/kg SC, read-out: AUCINF_obs): 3760 µg·h/mL
half-life ([1]; male, sc, animal 9697, M, 30 mg/kg SC): 76.2 h
AUC(0-t) [1, 5]: 2740 µg·h/mL
Cmax [1, 5]: 15.9 µg/mL
Tmax [1, 5]: 96 h
AUC(0-inf) ([1]; male, animal 9697, M, 30 mg/kg SC, read-out: AUCINF_obs): 3280 µg·h/mL
MIC (C. parapsilosis; C. parapsilosis 20423.072): 0.5 mg/L
MIC (C. parapsilosis; C. parapsilosis 20477.048): 1 mg/L
MIC (C. parapsilosis; C. parapsilosis 20519.069): 1 mg/L
MEC90 [2]: 0.015 µg/mL
1 log kill 24 h Ave Free drug AUC/MIC (C. glabrata; C. glabrata 5592): 0.36
1 log kill dose (C. glabrata; C. glabrata 5592): 0.43 mg/kg
1 log kill free drug AUC0-168h/MIC (C. glabrata; C. glabrata 5592): 2.54
1 log kill total drug AUC0-168h/MIC (C. glabrata; C. glabrata 5592): 317.50
Stasis 24 h Ave free drug AUC/MIC (C. glabrata; C. glabrata 5592): 0.05
Stasis free drug AUC0-168h/MIC (C. glabrata; C. glabrata 5592): 0.35
Stasis total drug AUC0-168h/MIC (C. glabrata; C. glabrata 5592): 43.16
Static dose (C. glabrata; C. glabrata 5592): 0.06 mg/kg
1 log kill 24 h Ave Free drug AUC/MIC (C. glabrata; C. glabrata 10956): 1.20
1 log kill dose (C. glabrata; C. glabrata 10956): 17.25 mg/kg
1 log kill free drug AUC0-168h/MIC (C. glabrata; C. glabrata 10956): 8.42
1 log kill total drug AUC0-168h/MIC (C. glabrata; C. glabrata 10956): 1052.22
Stasis 24 h Ave free drug AUC/MIC (C. glabrata; C. glabrata 10956): 0.48
Stasis free drug AUC0-168h/MIC (C. glabrata; C. glabrata 10956): 3.35
Stasis total drug AUC0-168h/MIC (C. glabrata; C. glabrata 10956): 418.68
Static dose (C. glabrata; C. glabrata 10956): 6.29 mg/kg
1 log kill 24 h Ave Free drug AUC/MIC (C. glabrata; C. glabrata 35315): 0.42
1 log kill dose (C. glabrata; C. glabrata 35315): 2.39 mg/kg
1 log kill free drug AUC0-168h/MIC (C. glabrata; C. glabrata 35315): 2.94
1 log kill total drug AUC0-168h/MIC (C. glabrata; C. glabrata 35315): 367.06
Stasis 24 h Ave free drug AUC/MIC (C. glabrata; C. glabrata 35315): 0.07
Stasis free drug AUC0-168h/MIC (C. glabrata; C. glabrata 35315): 0.50
Stasis total drug AUC0-168h/MIC (C. glabrata; C. glabrata 35315): 62.50
Static dose (C. glabrata; C. glabrata 35315): 0.34 mg/kg
1 log kill 24 h Ave Free drug AUC/MIC (C. glabrata; C. glabrata, Mean of 3 strains): 0.66
1 log kill dose (C. glabrata; C. glabrata, Mean of 3 strains): 6.69 mg/kg
1 log kill free drug AUC0-168h/MIC (C. glabrata; C. glabrata, Mean of 3 strains): 4.63
1 log kill total drug AUC0-168h/MIC (C. glabrata; C. glabrata, Mean of 3 strains): 578.93
Stasis 24 h Ave free drug AUC/MIC (C. glabrata; C. glabrata, Mean of 3 strains): 0.20
Stasis free drug AUC0-168h/MIC (C. glabrata; C. glabrata, Mean of 3 strains): 1.40
Stasis total drug AUC0-168h/MIC (C. glabrata; C. glabrata, Mean of 3 strains): 174.78
Static dose (C. glabrata; C. glabrata, Mean of 3 strains): 2.23 mg/kg
1 log kill 24 h Ave Free drug AUC/MIC (C. glabrata; [6]): 0.42
1 log kill dose (C. glabrata; [6]): 2.39 mg/kg
1 log kill free drug AUC0-168h/MIC (C. glabrata; [6]): 2.94
1 log kill total drug AUC0-168h/MIC (C. glabrata; [6]): 367.06
Stasis 24 h Ave free drug AUC/MIC (C. glabrata; [6]): 0.07
Stasis free drug AUC0-168h/MIC (C. glabrata; [6]): 0.5
Stasis total drug AUC0-168h/MIC (C. glabrata; [6]): 62.50
Static dose (C. glabrata; [6]): 0.34 mg/kg
kill at high doses (C. glabrata; C. glabrata, a number of strains): > 2 log10

— patent publication US20190307843A1, “SINGLE DOSE METHODS FOR PREVENTING AND TREATING FUNGAL INFECTIONS” (Cidara Therapeutics, Inc., priority 2016, published 2019)
